{"source": "patent US20200384064A1", "about": "“COMPOSITIONS AND METHODS USING HIGH PROTEIN FOR INDUCTION OF AUTOPHAGY” (SOCIETE DES PRODUiTS NESTLE S.A., priority 2017, published 2020)", "tested_on": "LC3 positive punctae in embryo muscles", "assay": "LC3 positive punctae count in muscles of transgenic LC3-ZsGreen zebrafish embryos", "format": "in vivo", "method": "Autophagy was measured by counting the number of LC3 positive punctae in embryo muscles, normalized by total area. A zebrafish autophagy reporter has been generated by stable expression of the LC3 protein fused to ZsGreen under the control of a skeletal muscle specific promoter, hereafter LC3-ZsGreen. Embryos from outcrossed transgenic zebrafish have been raised at 28° C. under standard laboratory conditions and have been treated at 48 h post-fertilization in 96 well plates (n=24). After 16 hours of treatment embryos were anesthetized with 0.016% tricaine and imaged with ImageXpress confocal system at 20× magnification (Molecular Devices). After acquisition embryos were further treated with NH4Cl 100 mM for 4 h to block LC3 degradation and imaged again. Z stack images were captured for each embryo and maximal projection images were produced. Number of LC3 punctae have been calculated with MetaXpress software (Moleculare Devices) and normalized by fish area."}
{"compound": "CC(C)[C@H](N)C(=O)O", "note": "[Valine, valine]", "values": [{"measurement": "Number of LC3 positive punctae in embryo muscles, normalized by total area", "setting": "500 μM in fish water, 16 hours of treatment from 48 h post-fertilization", "result": "induced an increase of LC3 positive punctae"}, {"measurement": "Autophagic flux (LC3 punctae in presence of the lysosomal inhibitor NH4Cl)", "setting": "500 μM, then NH4Cl 100 mM for 4 h", "result": "increase of autophagic flux"}]}
